Experimental data: US9415030B2 (priority 2008, dated 2016)
Read-outs that look alike come from different tables or passages of the source.

Assays:
[1] = system: OCD; test: Earlier treatments of Subject 1 (SSRIs, atypical neuroleptics, IVIG); type: in vivo, human; conditions: Subject 1, before glycine treatment
[2] = clinical; conditions: human, in vivo
From the text: Hyperammonemia is seen in several abnormal conditions, e.g. inborn errors of metabolism that affect the urea cycle, small bowel syndrome, and others.

[3] = system: lupus mice; conditions: fed a lot of arginine in their diet; cited from earlier work
[4] = system: cerebellar granule neurons; conditions: cultured cerebellar granule neurons; cited from earlier work
[5] = system: human cerebellar granule neurons; conditions: cultured cerebellar granule neurons; cited from earlier work
[6] = system: cognition
From the text: Available evidence consists of records for formal cognitive testing, school records from pre-kindergarten through college (in progress), SAT scores, including scores on practice tests in an SAT preparation course, and diary-recorded observations made in parental tutoring sessions occurring from first grade through college.
Preparation for the SAT test included a test preparation course that involved practice tests that simulated actual test conditions. […] It should be noted that both official and unofficial SAT tests were taken in the standard time intervals.
No parental tutoring was given and it should be noted that Subject 1 received no special accommodations in this course.
In the course of these explanations, the importance of these facts was strongly emphasized. One and a half months after the course was over, Subject 1 was again queried by their parent on this topic.

[7] = molecular target: NMDA co-agonist site (Homo sapiens, UniProt Q05586); conditions: 0.8 g/kg body weight/day; cited from earlier work
[8] = system: OCD, BDD, and ADHD symptoms
From the text: Although individual symptoms have varied in intensity over time, the basic spectrum of signs and symptoms appears to have been unchanged over 15 years.
Participation in family gatherings has increased.

[9] = 1 year after initiation of glycine treatment

Molecule: Fc1ccc([C@@H]2CCNC[C@H]2COc2ccc3c(c2)OCO3)cc1 [Paxil]
- response of OCD to treatment [1]: non-responder

Molecule: N=C(N)NCCC[C@H](N)C(=O)O [arginine, L-arginine]
- concentration at 3 h [2]: 98 µM
- plasma ammonia concentration [2]: ~94 µM
- survival [3]: die more quickly

Molecule: CC[C@H]1OC(=O)[C@H](C)[C@@H](O[C@H]2C[C@@](C)(OC)[C@@H](O)[C@H](C)O2)[C@H](C)[C@@H](O[C@@H]2O[C@H](C)C[C@H](N(C)C)[C@H]2O)[C@](C)(OC)C[C@@H](C)C(=O)[C@H](C)[C@@H](O)[C@]1(C)O [clarithromycin]
- NMDA receptor mediated excitotoxic cell death [4]: inhibited NMDA receptor mediated excitotoxic cell death
- kainate-mediated excitotoxicity [5]: not kainate-mediated excitotoxicity

Molecule: glycine
- college algebra test scores ([6]; 10 and 14 weeks after glycine cessation): low 90% range
- college algebra test scores ([6]; 21 and 26 weeks after glycine cessation): low 80% range
- improvement of SAT scores during Kaplan preparation course ([6]; course begun six months after starting glycine): approximately 250 points
- cognition ([6]; high-dose glycine treatment): cognition improved
- memory consolidation and/or retrieval ([6]; nine months after glycine cessation): return of difficulties in memory consolidation and/or retrieval
- SAT math score, official test ([6]; sustained glycine treatment): 520
- SAT math score, practice test 1 ([6]; sustained glycine treatment): 390
- SAT math score, practice test 2 ([6]; sustained glycine treatment): 460
- SAT math score, practice test 3 ([6]; sustained glycine treatment): 490
- SAT verbal score, official test ([6]; sustained glycine treatment): 660
- SAT verbal score, practice test 1 ([6]; sustained glycine treatment): 540
- SAT verbal score, practice test 2 ([6]; sustained glycine treatment): 540
- SAT verbal score, practice test 3 ([6]; sustained glycine treatment): 600
- percentile of official SAT verbal score ([6]; sustained glycine treatment): 90 percentile
- NMDA activity [7]: moderately enhanced NMDA activity
- intolerance of mirrors [8, 9]: reduced intolerance of mirrors
- perseverative behavior during taxi rides [8, 9]: much reduced
- decline on glycine cessation ([8]; 6 week cessation with no infection): little or no decline
- BDD signs and symptoms after glycine cessation ([8]; 9 month cessation begun May 2006): clear increase in BDD signs and symptoms
- line crossing obsession ([8]; Subject 1, during glycine treatment): no signs of the line crossing obsession
- time to first behavioral improvement after initiation of glycine treatment ([8]; Subject 1, parent's report): about three
- recovery of gains after glycine resumption ([8]; over three months after resumption): previous gains were largely recovered
- BDD signs and symptoms ([8]; periods of sustained glycine treatment): continued to improve
